In patent US20260200926A1, “TREM2 MODULATORS” (Muna Therapeutics ApS, priority 2022, published 2026):

Assays:
[1] = target: T1, Human TREM2 (Homo sapiens, UniProt Q9NZC2); test: Human TREM2 activity: cellular phosphorylation of Syk (AlphaLISA SureFire Ultra p-SYK) in HEK293/DAP12+TREM2 stable cell line; type: cell-based; conditions: for Emax: HEK293, maximal response relative to reference agonist example 1B (remaining examples), read-out: Emax; for EC50: phospho-Syk AlphaLISA signal, HEK293/DAP12+TREM2 cells, concentration giving 50% of maximal response, read-out: EC50
T1 construct: expressed in transfected cells
Outline: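 HEK293 cells stably co-expressing human TREM2 and DAP12 were seeded at 10,000 cells/well and used 20–24 h later. Compounds were tested at 8 concentrations (top 100 μM, 1:6 steps, 0.5% DMSO) for 30 min at 37 °C. Syk phosphorylation at Tyr525/526 was read in lysates by AlphaLISA SureFire Ultra.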

[2] = test system: TREM2 regulated genes CXCL10, CCL2, CST7, and TMEM119; test: Pharmacodynamics in hTREM2 knock-in mice: brain mRNA expression of TREM2 regulated genes by RT-qPCR; type: in vivo, humanized TREM2 knockin (hTREM2 KI) mice, C57BL/6 background; conditions: hTREM2 KI mice, oral gavage 50 mg/kg twice a day with a 10-hour interval, brains after 24 hours, RT-qPCR relative to GAPDH, normalized to vehicle
Procedure: Humanized TREM2 knockin (hTREM2 KI) mice were used for pharmacodynamics and pharmacokinetics studies. hTREM2 mice were generated by replacement of the mouse TREM2 gene that encodes the full-length protein by the human TREM2 gene in a C57BL/6 mouse strain background. Groups of 10 animals 8-10-week-old hTREM2 mice were treated via oral gavage administration with a TREM2 agonist compound at 50 mg/kg twice a day with a 10-hour interval. After 24 hours, mice were sacrificed and brains were isolated for RNA extraction used for reverse transcription to create complementary DNAs (cDNAs). The relative mRNA expression level of known TREM2 regulated genes were measured by quantitative reverse transcription polymerase chain reaction (RT-qPCR) relative to Glyceraldehyde-3-phosphate dehydrogenase (GAPDH) reference housekeeping gene. Expression of TREM2 regulated genes CXCL10, CCL2, CST7, and TMEM119 were measured as pharmacodynamic biomarkers after TREM2 agonist treatment normalized to vehicle control. These genes are known as microglial activation biomarkers and have previously been reported to respond to TREM2 antibody and small molecule agonist treatment in vivo.
Statistical Analyses. All graphs represent the mean of all samples in each group±SEM.
GraphPad Prism software was used to perform statistical analyses. P<0.05 was considered significant difference between vehicle and TREM2 small molecule treatment determined by T-test.
The relative expression levels for Compound 89A and vehicle were measured.

T1 sequence (Q9NZC2 19-230): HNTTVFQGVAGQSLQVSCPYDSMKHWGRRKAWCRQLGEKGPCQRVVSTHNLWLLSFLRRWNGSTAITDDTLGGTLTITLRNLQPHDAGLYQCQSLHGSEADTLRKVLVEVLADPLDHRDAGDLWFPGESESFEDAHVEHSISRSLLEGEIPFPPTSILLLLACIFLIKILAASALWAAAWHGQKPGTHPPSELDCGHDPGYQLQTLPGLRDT
T1 sequence (O43914 22-113 partner): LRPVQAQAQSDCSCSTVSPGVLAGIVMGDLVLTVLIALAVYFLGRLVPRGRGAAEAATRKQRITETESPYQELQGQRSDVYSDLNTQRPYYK

Structure (SMILES) | Emax [1] | EC50 [1] | brain expression level of CCL2 as compared to vehicle control [2] | brain expression level of CST7 as compared to vehicle control [2] | brain expression level of CXCL10 as compared to vehicle control [2] | brain expression level of TMEM119 as compared to vehicle control [2]
Cc1nc2c(-c3ccc(Cl)cc3F)nc(N3C[C@@H](c4cnn(C)c4)OC(C)(C)C3)nc2c(=O)n1C (single isomer, unassigned) [Example 89A] | 75 to 110% | 10 to 100 nM | 1.7 fold | 3.25 fold | about 2.5 fold | 1.8 fold
Cc1nc2c(-c3ccc(Cl)cc3C#N)nc(N3CC(C)OC(c4cnn(C5CC5)c4)C3)cc2c(=O)n1C (centres unmarked) [Example 198, 5-chloro-2-(6-(2-(1-cyclopropyl-1H-pyrazol-4-yl)-6-methylmorpholino)-2,3-dimethyl-4-oxo-3,4-dihydropyrido[3,4-d]pyrimidin-8-yl)benzonitrile] | < 75% | > 1000 nM |  |  |  | 
